Earlier results on three compounds are cited in patent publication US20260272874A1, “COMPOUNDS FOR THE TREATMENT AND PREVENTION OF VIRAL DISEASES” (priority 2023, published 2026).

The test system of series [1] is RNA helicase enzyme eIF4A. The following applies: previous studies.
Series [2] concerns corona viruses, SARS and MERS virus.

For the compound `COc1cc2c(c(OC)n1)[C@]1(O)[C@H](O)[C@H](CN(C)C)[C@@H](c3ccccc3)[C@]1(c1ccc(C#N)cc1)O2` [Zotatifin], the “antiviral activity against SARS-CoV-2” value in the series with SARS-CoV-2 was “shows antiviral activity”.

For the compound 4E2RCat, in the series with coronavirus, the coronavirus replication result is “capable of blocking coronavirus replication”. On to Silvesterol, for which the “inhibition of RNA helicase enzyme eIF4A” value in series [1] was “potent and selective inhibitor”. Besides, in series [2], the antiviral activity entry was “broad spectrum antiviral activity”.
